Test results taken from patent US11881286B2, “CD8+ t cell based immunosuppressive tumor microenvironment detection method” (GENENTECH, INC., priority 2019, dated 2024).

Columns and labels:
[1] = test system: PA-1; assay: Surface MHC-I (HLA-ABC) expression by flow cytometry, PA-1; format: cell-based, human; conditions: 96 h
Method: (§1) SK-OV-3 and OVCA-420 (MHC-I^high), and OAW42 and PA-1 (MHC-I^low) ovarian cancer lines were cultured in complete culture media (RPMI-1640+10% FBS). The cells were plated at 12,500-100,000 cells/well in 6-well tissue culture plate and complete culture media. After 24 hours, the cells were starved overnight in DMEM high glucose medium without FBS. Next, the starving media was replaced with culture media only (DMEM+2% FBS), 10 ng/mL rhTGFβ1 (Cat #PHG9204, Thermo Fisher, CA), 10 ng/mL rhTGFβ1+10 μM Galunisertib (Cat #S2230, SelleckChem, TX) or 5 ng/mL recombinant IFNγ (Cat #554617, BD Biosciences, CA) for 96 h at 37° C. Cells were then stained and analysed by flow cytometry. The “percentage of untreated” was calculated using this formula: [Geo Mean Fluorescence Intensity (IFNγ-treated cells)/Geo Mean Fluorescence Intensity (untreated cells)]×100. […] Media was half-replenished with fresh 5-Aza 48 hours after treatment to keep concentration consistent. Before staining, Fc receptors were blocked for 10 min at room temperature using FcR blocking reagent human (Cat #130-059-901, Miltenyi Biotec, CA). Cells were stained during the blocking step with the LIVE/DEAD™ Fixable Near-IR Dead Cell (Cat #L10119, Invitrogen, CA). […]

[2] = test system: OAW42; assay: Surface MHC-I (HLA-ABC) expression by flow cytometry, OAW42; format: cell-based, human; conditions: 96 h
Method: as §1

[3] = test system: SMAD2/3; assay: p-SMAD2/3 Western blot assay in PHBF fibroblasts; format: cell-based, human; conditions: 30 min
Method: PHBF cells were plated at 100,000 cells/well in a 24-well cell culture plate overnight, serum starved for 24 h and then cultured in serum-free DMEM with indicated concentration of […] with or without Galunisertib for 30 min. Cells were lysed in protein lysis buffer containing T-PER tissue protein extraction reagent (ThermoFisher, #78510), cOmplete™ Protease Inhibitor Cocktail (Sigma-Aldrich, #11697498001) and PhosSTOP™ phosphatase inhibitor cocktails (Sigma-Aldrich, #4906845001). Total protein was diluted and normalized to 0.5 μg/μL with 4×LDS Sample Buffer (ThermoFisher, #84788). 10 ug of total protein was loaded into each well of a NuPAGE 4-12% Bis-Tris Midi Gel (Invitrogen), followed by protein transfer from gel to the membrane using Trans-Blot Turbo (Bio-Rad). […] Briefly, the membrane was blocked for 1 h, incubated with Phospho-Smad2 antibodies overnight at 4° C. ([…], 1:200, Cell Signaling #3108, clone138D4), washed and incubated with secondary antibodies goat anti-rabbit. To analyse the total Smad2/3, the membrane was stripped and then incubated with Smad2/3 antibodies (1:1000, Cell Signaling #8685).

[4] = test system: SK-OV-3; assay: Surface MHC-I (HLA-ABC) expression by flow cytometry, SK-OV-3; format: cell-based, human; conditions: 96 h
Method: SK-OV-3 and OVCA-420 (MHC-I^high), and OAW42 and PA-1 (MHC-I^low) ovarian cancer lines were cultured in complete culture media (RPMI-1640+10% FBS). The cells were plated at 12,500-100,000 cells/well in 6-well tissue culture plate and complete culture media. After 24 hours, the cells were starved overnight in DMEM high glucose medium without FBS. Next, the starving media was replaced with culture media only (DMEM+2% FBS), 10 ng/mL rhTGFβ1 (Cat #PHG9204, Thermo Fisher, CA), 10 ng/mL rhTGFβ1+10 μM Galunisertib (Cat #S2230, SelleckChem, TX) or 5 ng/mL recombinant IFNγ (Cat #554617, BD Biosciences, CA) for 96 h at 37° C. Cells were then stained and analysed by flow cytometry. The “percentage of untreated” was calculated using this formula: [Geo Mean Fluorescence Intensity (IFNγ-treated cells)/Geo Mean Fluorescence Intensity (untreated cells)]×100. In order to see if MHC-I expression can be regulated by methylation, two MHC-I^low lines OAW42 and PA-1 were plated at 250,000-500,000 cells/dish in 10-cm dish and serum starved as described above for TGFβ1 treatment. 10 μM and 1 μM 5-Aza-2′-deoxycytidine (5-Aza, Cat #A2385, Sigma-Aldrich) demethylating agent in culture media was used to treat OAW42 and PA-1, respectively, for 96 h prior to FACS analysis. Media was half-replenished with fresh 5-Aza 48 hours after treatment to keep concentration consistent. […]

[5] = test system: OVCA-420; assay: Surface MHC-I (HLA-ABC) expression by flow cytometry, OVCA-420; format: cell-based, human
Method: SK-OV-3 and OVCA-420 (MHC-I^high), and OAW42 and PA-1 (MHC-I^low) ovarian cancer lines were cultured in complete culture media (RPMI-1640+10% FBS). The cells were plated at 12,500-100,000 cells/well in 6-well tissue culture plate and complete culture media. After 24 hours, the cells were starved overnight in DMEM high glucose medium without FBS. Next, the starving media was replaced with culture media only (DMEM+2% FBS), 10 ng/mL rhTGFβ1 (Cat #PHG9204, Thermo Fisher, CA), 10 ng/mL rhTGFβ1+10 μM Galunisertib (Cat #S2230, SelleckChem, TX) or 5 ng/mL recombinant IFNγ (Cat #554617, BD Biosciences, CA) for 96 h at 37° C. Cells were then stained and analysed by flow cytometry. The “percentage of untreated” was calculated using this formula: [Geo Mean Fluorescence Intensity (IFNγ-treated cells)/Geo Mean Fluorescence Intensity (untreated cells)]×100. In order to see if MHC-I expression can be regulated by methylation, two MHC-I^low lines OAW42 and PA-1 were plated at 250,000-500,000 cells/dish in 10-cm dish and serum starved as described above for TGFβ1 treatment. 10 μM and 1 μM 5-Aza-2′-deoxycytidine (5-Aza, Cat #A2385, Sigma-Aldrich) demethylating agent in culture media was used to treat OAW42 and PA-1, respectively, for 96 h prior to FACS analysis. Media was half-replenished with fresh 5-Aza 48 hours after treatment to keep concentration consistent.
Before staining, Fc receptors were blocked for 10 min at room temperature using FcR blocking reagent human (Cat #130-059-901, Miltenyi Biotec, CA). Cells were stained during the blocking step with the LIVE/DEAD™ Fixable Near-IR Dead Cell (Cat #L10119, Invitrogen, CA). Then, cells were incubated at room temperature for 15 min with anti-human HLA-ABC-PE (Cat #560168, BD Biosciences, CA) or isotype control mouse IgG1κ-PE (Cat #556650, BD Biosciences) antibodies, washed and samples were acquired on BD LSRFortessa™ flow cytometer.

[6] = test system: primary human fibroblasts; assay: RNA-seq transcriptional response of primary human fibroblasts; format: cell-based; conditions: 10 ng/mL rhTGFβ1, 24 h
Method: (§2) The primary normal fibroblast PHBF (Bladder), CCD-18Co (Colon) and HOF (Ovary) were serum-starved overnight before treatment with media only (untreated), 10 ng/mL rhTGFβ1 or 10 ng/mL rhTGFβ1+10 μM Galunisertib for 24 hours and total RNA was extracted for RNA-seq analysis. To detect IL-6 protein in the supernatant, cells were treated for 48 hours with rhTGFβ1. After the 48 h, the supernatant was collected and analysed by Luminex using the Millipore kit. For the proliferation assay, PHBF, CCD-18Co, HOF were plated at 3,000 cells/well in a 96-well culture flat bottom plate for immunofluorescent assays (Corning, #3917) overnight. Cells were then cultured for 72 hours in DMEM high glucose+1% FBS with indicated concentration of TGFβ1 with or without Galunisertib. Next, CellTiter-Glo® reagents (Promega, G7570) were added to each well and luminescence signal was read with a microplate reader.

[7] = test system: IL-6; assay: IL-6 protein in fibroblast supernatant by Luminex; format: cell-based, human; conditions: rhTGFβ1, 48 h
Method: as §2

[8] = test system: primary human fibroblasts; assay: Proliferation assay (CellTiter-Glo) of primary human fibroblasts; format: cell-based; conditions: ovary, bladder and colon fibroblasts, 72 h
Method: as §2

In the case of Nc1ncn([C@H]2C[C@H](O)[C@@H](CO)O2)c(=O)n1 [5-aza-2′-deoxycytidine], the “expression of MHC class I protein at the tumor cell surface” value ([1]; PA-1, 1 μM 5-Aza, vs DMSO) is reported as “significantly induce” and the “expression of MHC class I protein at the tumor cell surface” value ([2]; OAW42, 10 μM 5-Aza, vs DMSO) is reported as “significantly induce”.

Cc1cccc(-c2nn3c(c2-c2ccnc4ccc(C(N)=O)cc24)CCC3)n1 [Galunisertib] was tested, and the “TGFβ pathway (SMAD2/3 phosphorylation) with Galunisertib treatment” value ([3]; TGFβ1 with Galunisertib) was “pathway inhibition”, the “MHC class I expression in the presence of Galunisertib” value ([4]; SK-OV-3, 10 ng/mL rhTGFβ1+10 μM Galunisertib) was “restored to the untreated level” and the “MHC class I expression in the presence of Galunisertib” value ([5]; OVCA-420, 10 ng/mL rhTGFβ1+10 μM Galunisertib, 96 h) was “restored to the untreated level”.

In the case of “TGFβ1: recombinant human TGFβ1 (rhTGFβ1, Cat #PHG9204, Thermo Fisher)”, the “phosphorylation level of SMAD2/3” value ([3]; TGFβ dose-dependent) is reported as “increased”, the “expression of immune-modulatory molecules (IL11, TNFAIP6) in fibroblast cells” value [6] is reported as “specifically induced” and the “mRNA expression of IL6 in human fibroblasts” value [6] is reported as “specifically induced”. For the same molecule, the “transcriptional program induced in human primary fibroblasts (ECM-related genes, reactive stroma markers)” value ([6]; ovary, bladder, colon fibroblasts) was “common 77-gene transcriptional program specifically induced”, the “IL-6 protein secretion level in the supernatant” value [7] was “dramatically increased” and the “proliferation of primary human fibroblasts” value [8] was “promoted proliferation”. For the same molecule, the “decrease of surface expression of MHC-I compared to the untreated cells” value ([5]; OVCA-420, 10 ng/mL rhTGFβ1, 96 h, flow cytometry) was 40.45±14.2%.

B1: IFNγ: recombinant IFNγ, a cytokine well established for inducing MHC-I expression (protein, UniProt P01579 24-161, looked up)
Interferon gamma: QDPYVKEAENLKKYFNAGHSDVADNGTLFLGILKNWKEESDRKIMQSQIVSFYFKLFKNFKDDQSIQKSVETIKEDMNVKFFNSNKKKRDDFEKLTNYSVTDLNVQRKAIHELIQVMAELSPAAKTGKRKRSQMLFRG
In the case of B1, the “MHC class I protein expression on the tumor cell surface” value (from here on “MHC class I protein expression”) ([1]; PA-1 (MHC-I low), 5 ng/mL IFNγ) is reported as “increased”, the “MHC class I protein expression” value ([2]; OAW42 (MHC-I low), 5 ng/mL IFNγ) is reported as “increased” and the “MHC class I protein expression” value ([4]; SK-OV-3 (MHC-I high), 5 ng/mL IFNγ) is reported as “increased”. For the same molecule, the “MHC class I protein expression” value ([5]; OVCA-420 (MHC-I high), 5 ng/mL IFNγ, 96 h) was “increased”.
